Where a SMILES comes first, the peptide text is derived from it. [ ]: non-standard residue; d: D form. Hyp = O=C(O)[C@@H]1C[C@@H](O)CN1; dHyp = O=C(O)[C@H]1C[C@H](O)CN1; Aic = NC1(C(=O)O)Cc2ccccc2C1; dNle = CCCC[C@@H](N)C(=O)O
How the values were obtained:
[1] = system: MeV; conditions: 2 h
[2] = Table 2; cited from earlier work
[3] = system: HPIV-3; conditions: 2 h
[4] = system: influenza virus (subtype H1N1); conditions: influenza virus (subtype, 2 h)
[5] = MTT cytotoxicity assay on Vero cells; type: cell-based; conditions: MTT; for CC50: calculated after 2 h of peptide treatment; for viability: 2 h, concentrations below 25 μM, read-out: viable cells
[6] = system: HCoV-229E; conditions: 2 h
[7] = system: HCoV-OC43; conditions: 2 h

SMILES	IC50 [1]	IC90 [1]	%Helix in DPC [2]	IC50 [3]	IC90 [3]	IC50 [4]	IC90 [4]	CC50 [5]	IC50 [6]	IC90 [6]	IC50 [7]	IC90 [7]	viability [5]
CC[C@H](C)[C@H](NC(=O)[C@H](CCCNC(=N)N)NC(=O)[C@@H]1C[C@@H](O)CN1C(=O)[C@@H](CC(C)C)NC(=O)[C@H](Cc1ccccc1)NC(=O)[C@H](CCCCN)NC(=O)[C@H](CO)NC(=O)[C@H](Cc1ccccc1)NC(=O)[C@H](Cc1c[nH]c2ccccc12)NC(=O)[C@@H]1CCCN1C(=O)[C@@H](NC(=O)[C@@H](N)Cc1ccccc1)C(C)C)C(=O)N[C@@H](CC(C)C)C(N)=O [TL4, H-Phe-Val-Pro-Trp-Phe-Ser-Lys-Phe-DLeu-Hyp-Arg-Ile-Leu-NH2] (H-FVPWFSKF[dL][Hyp]RIL-NH2)	> 50 µM	> 50 µM	18%	> 50 µM	> 50 µM	16.3 µM	31.7 µM	60.2 µM					
CC[C@H](C)[C@H](NC(=O)[C@H](CCCNC(=N)N)NC(=O)[C@H]1C[C@H](O)CN1C(=O)[C@@H](CC(C)C)NC(=O)[C@H](Cc1ccccc1)NC(=O)[C@H](CCCCN)NC(=O)[C@H](CO)NC(=O)[C@H](Cc1ccccc1)NC(=O)[C@H](Cc1c[nH]c2ccccc12)NC(=O)[C@@H]1CCCN1C(=O)[C@@H](NC(=O)[C@@H](N)Cc1ccccc1)C(C)C)C(=O)N[C@@H](CC(C)C)C(N)=O [TL5, H-Phe-Val-Pro-Trp-Phe-Ser-Lys-Phe-DLeu-DHyp-Arg-Ile-Leu-NH2] (H-FVPWFSKF[dL][dHyp]RIL-NH2)	> 50 µM	> 50 µM	9%	> 50 µM	> 50 µM	> 50 µM	> 50 µM	> 100 µM	> 50000 nM	> 50 µM	> 50000 nM	> 50 µM	
CC[C@H](C)[C@H](NC(=O)[C@H](CCCNC(=N)N)NC(=O)[C@H](CCCCN)NC(=O)[C@@H](CC(C)C)NC(=O)[C@H](Cc1ccccc1)NC(=O)[C@H](CCCCN)NC(=O)[C@H](CO)NC(=O)[C@H](Cc1ccccc1)NC(=O)[C@H](Cc1c[nH]c2ccccc12)NC(=O)[C@@H]1CCCN1C(=O)[C@@H](NC(=O)[C@@H](N)Cc1ccccc1)C(C)C)C(=O)N[C@@H](CC(C)C)C(N)=O [TL8, H-Phe-Val-Pro-Trp-Phe-Ser-Lys-Phe-DLeu-Lys-Arg-Ile-Leu-NH2] (H-FVPWFSKF[dL]KRIL-NH2)	37.1 µM	> 50 µM	61%			3.4 µM	9.78 µM	22.3 µM					
CC[C@H](C)[C@H](NC(=O)[C@H](CCCNC(=N)N)NC(=O)[C@@H](Cc1c[nH]c2ccccc12)NC(=O)[C@@H](CC(C)C)NC(=O)[C@H](Cc1ccccc1)NC(=O)[C@H](CCCCN)NC(=O)[C@H](CO)NC(=O)[C@H](Cc1ccccc1)NC(=O)[C@H](Cc1c[nH]c2ccccc12)NC(=O)[C@@H]1CCCN1C(=O)[C@@H](NC(=O)[C@@H](N)Cc1ccccc1)C(C)C)C(=O)N[C@@H](CC(C)C)C(N)=O [TL11, H-Phe-Val-Pro-Trp-Phe-Ser-Lys-Phe-DLeu-DTrp-Arg-Ile-Leu-NH2] (H-FVPWFSKF[dL][dW]RIL-NH2)	43.2 µM	> 50 µM	40%			3.05 µM	9.77 µM	24.1 µM					
CC[C@H](C)[C@H](NC(=O)[C@H](CCCNC(=N)N)NC(=O)[C@H](Cc1c[nH]c2ccccc12)NC(=O)[C@@H](CC(C)C)NC(=O)[C@H](Cc1ccccc1)NC(=O)[C@H](CCCCN)NC(=O)[C@H](CO)NC(=O)[C@H](Cc1ccccc1)NC(=O)[C@H](Cc1c[nH]c2ccccc12)NC(=O)[C@@H]1CCCN1C(=O)[C@@H](NC(=O)[C@@H](N)Cc1ccccc1)C(C)C)C(=O)N[C@@H](CC(C)C)C(N)=O [TL10, H-Phe-Val-Pro-Trp-Phe-Ser-Lys-Phe-DLeu-Trp-Arg-Ile-Leu-NH2] (H-FVPWFSKF[dL]WRIL-NH2)	42.8 µM	> 50 µM	50%			3.79 µM	12.1 µM	35.5 µM					> 65%
CC[C@H](C)[C@H](NC(=O)[C@H](CCCNC(=N)N)NC(=O)[C@@H](CCCCN)NC(=O)[C@@H](CC(C)C)NC(=O)[C@H](Cc1ccccc1)NC(=O)[C@H](CCCCN)NC(=O)[C@H](CO)NC(=O)[C@H](Cc1ccccc1)NC(=O)[C@H](Cc1c[nH]c2ccccc12)NC(=O)[C@@H]1CCCN1C(=O)[C@@H](NC(=O)[C@@H](N)Cc1ccccc1)C(C)C)C(=O)N[C@@H](CC(C)C)C(N)=O [TL9, H-Phe-Val-Pro-Trp-Phe-Ser-Lys-Phe-DLeu-DLys-Arg-Ile-Leu-NH2] (H-FVPWFSKF[dL][dK]RIL-NH2)	45 µM	> 50 µM	30%			3.44 µM	11.2 µM	45.9 µM					> 65%
CCCC[C@@H](NC(=O)[C@@H](CC(C)C)NC(=O)[C@H](Cc1ccccc1)NC(=O)[C@H](CCCCN)NC(=O)[C@H](CO)NC(=O)[C@H](Cc1ccccc1)NC(=O)[C@H](Cc1c[nH]c2ccccc12)NC(=O)[C@@H]1CCCN1C(=O)[C@@H](NC(=O)[C@@H](N)Cc1ccccc1)C(C)C)C(=O)N[C@@H](CCCNC(=N)N)C(=O)N[C@H](C(=O)N[C@@H](CC(C)C)C(N)=O)[C@@H](C)CC [TL7, H-Phe-Val-Pro-Trp-Phe-Ser-Lys-Phe-DLeu-DNle-Arg-Ile-Leu-NH2] (H-FVPWFSKF[dL][dNle]RIL-NH2)	> 50 µM	> 50 µM	30%	> 50 µM	> 50 µM	4.45 µM	13.5 µM	32.2 µM					
CC[C@H](C)[C@H](NC(=O)[C@H](CCCNC(=N)N)NC(=O)C1(NC(=O)[C@@H](CC(C)C)NC(=O)[C@H](Cc2ccccc2)NC(=O)[C@H](CCCCN)NC(=O)[C@H](CO)NC(=O)[C@H](Cc2ccccc2)NC(=O)[C@H](Cc2c[nH]c3ccccc23)NC(=O)[C@@H]2CCCN2C(=O)[C@@H](NC(=O)[C@@H](N)Cc2ccccc2)C(C)C)Cc2ccccc2C1)C(=O)N[C@@H](CC(C)C)C(N)=O [TL12, H-Phe-Val-Pro-Trp-Phe-Ser-Lys-Phe-DLeu-Aic-Arg-Ile-Leu-NH2] (H-FVPWFSKF[dL][Aic]RIL-NH2)	30.4 µM	> 50 µM	18%	33.8 µM	> 50 µM	0.71 µM	13.9 µM	8.28 µM	740 nM	20.9 µM	620 nM	13.2 µM	
CC[C@H](C)[C@H](NC(=O)[C@H](CCCNC(=N)N)NC(=O)[C@@H]1CCCN1C(=O)[C@@H](CC(C)C)NC(=O)[C@H](Cc1ccccc1)NC(=O)[C@H](CCCCN)NC(=O)[C@H](CO)NC(=O)[C@H](Cc1ccccc1)NC(=O)[C@H](Cc1c[nH]c2ccccc12)NC(=O)[C@@H]1CCCN1C(=O)[C@@H](NC(=O)[C@@H](N)Cc1ccccc1)C(C)C)C(=O)N[C@@H](CC(C)C)C(N)=O [TL2, H-Phe-Val-Pro-Trp-Phe-Ser-Lys-Phe-DLeu-Pro-Arg-Ile-Leu-NH2] (H-FVPWFSKF[dL]PRIL-NH2)	> 50 µM	> 50 µM	15%			12 µM	21.3 µM	56.5 µM					

— publication PMC8878748, “Broad-Spectrum Antiviral Activity of the Amphibian Antimicrobial Peptide Temporin L and Its Analogs” (International Journal of Molecular Sciences, 2022)
